Measurements reported in patent US11065266B2, “Method of treating melanoma using an inhibitor of an atypical protein kinase C” (UNIVERSITY OF SOUTH FLORIDA, priority 2016, dated 2021).

Key:
Assay type in all cases: cell-based, human
[1] = tested on: SK-MEL-2 cells; assay: Wound healing assay; settings: for wound closure: 2.5 μM, day 3 or 4, p≤0.01; for scratch coverage in wound healing assay: two days
Description: For the wound-healing assay, melanoma cells were seeded into 35 mm dishes in 6-well-plates. After the cells had reached 100% confluency, the wound-healing assay was performed with a sterile pipette tip (1-10 μL pipette tip) by making a scratch through the confluent monolayer. Subsequently, the cells were washed with DPBS and fresh medium (EMEM) was added to each well and the desired amount of inhibitor was added in order to achieve the final concentrations of 50 nM, 100 nM, 200 nM, 500 nM and 1 μM against the control. Cells were cultured for 48 h. In 24 hours intervals, pictures of wound closure were taken and the percentage of wound closure was calculated in three randomly chosen fields.
The scratch was even clearer after two days in 1 μM sample compared to 200 nM sample. Also the number of dead cells floating was highest in 1 μM, followed by 200 nM; whereas, floating cells were rarely observed in the control samples.
A wound healing assay was performed to investigate the effect of ACPD and DNDA on malignant melanoma cell migration in vitro. Wound healing assay is commonly used to investigate in vitro migration of cancer cells. For the wound-healing assay, melanoma cells were seeded into 35 mm dishes in 6-well-plates. After the cells had reached 100% confluency, the wound-healing assay was performed with a sterile pipette tip (1-10 μL pipette tip) by making a scratch through the confluent monolayer. Subsequently, the cells were washed with DPBS and fresh medium (EMEM) was added to each well and the desired amount of inhibitor was added. Each well was subsequently incubated with sterile water or desired amount of ICA-1, ACPD, DNDA, or c-Stat to achieve the final concentration of the half maximal inhibitory concentration (IC50) for each inhibitor. Plates were incubated at 37 ° C. and 5% CO2 and photographs of wound closure were taken utilizing a Motic AE31E microscope (40× magnification). The percentage of wound closure was calculated after 3 or 4 days.
In one set of experiments, cells were cultured for 48 h. In 24 hours intervals, pictures of wound closure were taken and the percentage of wound closure was calculated in three randomly chosen fields. […] In each figure, cells treated with ACPD 2.5 μM and DNDA 2.5 μM were compared with their respective controls. The areas of the scratch (wound) were calculated and compared to determine the statistical significance (FIG. 8C).

[2] = tested on: SK-MEL-2 cells; assay: Western blot of protein levels; parameters: reduction of PKC-ι level / reduction of pPKC-ι level / reduction of PKC-ζ level / reduction of pPKC-ζ level: concentration or dose not given beside the values; settings: for reduction of PKC-ζ level / reduction of PKC-ι level / reduction of pPKC-ζ level / reduction of pPKC-ι level: vs respective control
Description: Approximately 2×10^5 cells from PCS-200-013 and SK-MEL-2 cell lines were plated in T25 flasks until they become 70% confluent. Confluent cells were semi-synchronized by contact inhibition and serum starvation for 48 hrs. Subsequently, cells were incubated with serum and atypical inhibitors. The cells were removed at specific times and were placed in ice to terminate the incubation. Cells were washed at least two times with ice cold DPBS. Cells were then scrapped, re-suspended and sonicated in 500 μL of homogenization buffer (50 mM HEPES—pH 7.5), 150 mM NaCl, 0.1% Triton X, 1 mM EDTA (ethylenediaminetetraacetic acid), 2 mM EGTA [glycol-bis (2-aminoethylether)-N, N, N′,N′-tetraacetic acid], 0.1 mM orthovanadate, 1 mM NaF, 2 mM PMSF (phenylmethylsulphonylfluoride), 1 mM DTT (dithiothreitol) and 0.15 U/mL aprotinin. Cell suspensions was then sonicated and centrifuged at 100,000 g for 30 minutes. The protein concentrations was determined using Bradford method. Subsequently, approximately 800 μg of proteins were immunoprecipitated with the antibody against desired protein. In some cases cell lysates were suspended with anti-HFS-1 antibody, rocking overnight at 4° C. Agarose beds were added after 24 hrs. Then the complex of cell lysate-anti HSF-1 antibody-agarose beads was rocked at 4° C. for 2 hrs. After washing the beads, approximately […] the sample loading buffer was added to dissolve all the protein on the beads. Proteins were then separated on sodium dodecyl sulfate polyacrylamide gel electrophoresis (SDS-PAGE) and transblotted followed by immunoblotting with anti-PKC-ζ or anti-PKC-ι or anti-HSF-1 antibody or phosphospecific antibodies. Immunoreactive bands were visualized with enhanced chemiluminescence. […]
(§1) Western blots (WB) were performed to investigate the effect of ACPD and DNDA on the expression of aPKCs on malignant melanoma. […] DNDA decreased the levels of PKC-ι by 52%, pPKC-ι by 33% in SK-MEL-2 cells and by 27% of PKC-ι and pPKC-ι by 20% in MeWo cells.
(§2) DNDA reduced the levels of PKC-ζ by 33%, pPKC-ζ by only 17% in SK-MEL-2 cells and by 60% of PKC-ζ and pPKC-ζ by 29% in MeWo cells. All values (percent) were calculated compared to their respective control in Western blot. B-actin was used as the internal control to ensure that equal amounts of proteins were loaded in each lane in SDS-PAGE.

[3] = tested on: MeWo cells; assay: Western blot of protein levels; parameters: concentration or dose not given beside the values; settings: vs respective control
Description: Approximately 2×10^5 cells from PCS-200-013 and SK-MEL-2 cell lines were plated in T25 flasks until they become 70% confluent. Confluent cells were semi-synchronized by contact inhibition and serum starvation for 48 hrs. Subsequently, cells were incubated with serum and atypical inhibitors. The cells were removed at specific times and were placed in ice to terminate the incubation. Cells were washed at least two times with ice cold DPBS. Cells were then scrapped, re-suspended and sonicated in 500 μL of homogenization buffer (50 mM HEPES—pH 7.5), 150 mM NaCl, 0.1% Triton X, 1 mM EDTA (ethylenediaminetetraacetic acid), 2 mM EGTA [glycol-bis (2-aminoethylether)-N, N, N′,N′-tetraacetic acid], 0.1 mM orthovanadate, 1 mM NaF, 2 mM PMSF (phenylmethylsulphonylfluoride), 1 mM DTT (dithiothreitol) and 0.15 U/mL aprotinin. Cell suspensions was then sonicated and centrifuged at 100,000 g for 30 minutes. The protein concentrations was determined using Bradford method. Subsequently, approximately 800 μg of proteins were immunoprecipitated with the antibody against desired protein. In some cases cell lysates were suspended with anti-HFS-1 antibody, rocking overnight at 4° C. Agarose beds were added after 24 hrs. Then the complex of cell lysate-anti HSF-1 antibody-agarose beads was rocked at 4° C. for 2 hrs. After washing the beads, approximately […] the sample loading buffer was added to dissolve all the protein on the beads. Proteins were then separated on sodium dodecyl sulfate polyacrylamide gel electrophoresis (SDS-PAGE) and transblotted followed by immunoblotting with anti-PKC-ζ or anti-PKC-ι or anti-HSF-1 antibody or phosphospecific antibodies. Immunoreactive bands were visualized with enhanced chemiluminescence.
as §1, §2

[4] = upon increasing concentration, vs control

Row | SMILES | wound closure [1] | decrease of Bcl-2 levels [2] | decrease of CD44 [2] | decrease of Vimentin levels [2] | decrease of β-catenin [2] | increase of Caspase-3 levels [2] | increase of E-cadherin levels [2] | increase of NF-KB p65 levels [2] | increase of cleaved PARP levels [2] | reduction of PKC-ζ level [2] | reduction of PKC-ι level [2] | reduction of pPKC-ζ level [2] | reduction of pPKC-ι level [2] | reduction of PKC-ζ level [3] | reduction of PKC-ι level [3] | reduction of pPKC-ζ level [3] | reduction of pPKC-ι level [3] | other results
1 | Nc1c(S(=O)(=O)O)cc2cc(S(=O)(=O)O)ccc2c1N [DNDA, 3,4-diamino-2,7-naphthalenedisulfonic acid] | significantly reduce the wound closure | 7% | 27% | 49% | 13% | 32% | 28% | 49% | 16% | 33% | 52% | 17% | 33% | 60% | 27% | 29% | 20% | increase of PARP levels [2]: 12%
2 | CC(=O)C1=C(O)CCC1=O [ACPD, 2-acetyl-1,3-cyclopentanedione] | significantly reduce the wound closure | 13% | 19% | 51% | 39% | 26% | 18% | 31% | 14% | 42% | 43% | 29% | 31% | 42% | 46% | 23% | 26% | scratch coverage in wound healing assay ([1]; 200 nM): not completely covered; scratch coverage in wound healing assay ([1]; 1 μM): not completely covered; decrease of PARP levels [2]: 33%; PKC-ζ level [2, 4]: decreased; PKC-ι level [2, 4]: good decrease
